Reference: patent US9522883B2, “Glycosidase inhibitors and uses thereof” (Alectos Therapeutics Inc., priority 2012, dated 2016)

Biological target: human O-GlcNAcase (Homo sapiens (Human), UniProt O60502)
Assay: Assay for determination of KI values for inhibition of O-GlcNAcase activity (fluorescence-based hOGA)
Type: biochemical
Details: purified human O-GlcNAcase, 4-Methylumbelliferyl N-acetyl-β-D-glucosaminide substrate, pH 7.0, Cheng-Prusoff
Experimental: Enzymatic reactions were carried out in a reaction containing 50 mM NaH2PO4, 100 mM NaCl and 0.1% BSA (pH 7.0) using 2 mM 4-Methylumbelliferyl N-acetyl-β-D-glucosaminide dihydrate (Sigma M2133) dissolved in ddH2O, as a substrate. The amount of purified human O-GlcNAcase enzyme used in the reaction was 0.7 nM. Test compound of varying concentrations was added to the enzyme prior to initiation of the reaction. The reaction was performed at room temperature in a 96-well plate and was initiated with the addition of substrate. The production of fluorescent product was measured every 60 sec for 45 min with a Tecan Infinite M200 plate-reader with excitation at 355 nm and emission detected at […], with 4-Methylumbelliferone (Sigma M1381) used to produce a standard curve. The slope of product production was determined for each concentration of compound tested and plotted, using standard curve fitting algorithms for sigmoidal dose response curves. The values for a four parameter logistic curve fit of the data were determined.
KI values were determined using the Cheng-Prusoff equation; the Km of O-GlcNAcase for substrate was 0.2 mM.

Chain of human O-GlcNAcase (O60502 whole entry): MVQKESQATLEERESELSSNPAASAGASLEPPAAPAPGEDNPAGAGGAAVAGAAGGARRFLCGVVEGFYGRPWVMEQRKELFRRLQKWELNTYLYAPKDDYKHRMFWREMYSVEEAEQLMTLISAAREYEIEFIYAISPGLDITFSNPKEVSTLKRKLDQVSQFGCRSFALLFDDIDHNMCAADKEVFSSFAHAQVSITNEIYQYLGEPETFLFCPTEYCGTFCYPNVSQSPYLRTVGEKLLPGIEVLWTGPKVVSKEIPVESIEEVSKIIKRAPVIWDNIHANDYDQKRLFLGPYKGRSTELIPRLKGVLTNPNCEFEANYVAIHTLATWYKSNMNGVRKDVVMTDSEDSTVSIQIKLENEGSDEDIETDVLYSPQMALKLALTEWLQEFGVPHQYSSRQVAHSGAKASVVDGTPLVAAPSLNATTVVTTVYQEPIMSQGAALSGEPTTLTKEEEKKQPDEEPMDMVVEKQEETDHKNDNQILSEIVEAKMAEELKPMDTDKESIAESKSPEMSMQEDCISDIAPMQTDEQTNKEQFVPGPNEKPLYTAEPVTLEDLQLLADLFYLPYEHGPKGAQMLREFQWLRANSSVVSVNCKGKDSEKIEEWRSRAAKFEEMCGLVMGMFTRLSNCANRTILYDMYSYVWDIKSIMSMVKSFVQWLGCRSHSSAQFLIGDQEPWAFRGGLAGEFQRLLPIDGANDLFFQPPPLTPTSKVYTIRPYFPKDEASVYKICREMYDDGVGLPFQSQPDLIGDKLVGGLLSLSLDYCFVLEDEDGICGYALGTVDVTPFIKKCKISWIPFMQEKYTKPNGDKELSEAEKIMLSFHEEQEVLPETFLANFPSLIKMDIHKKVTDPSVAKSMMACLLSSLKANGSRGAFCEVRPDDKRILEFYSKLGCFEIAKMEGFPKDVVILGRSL

Ki: 2.58 µM
SMILES: CC(=O)N[C@H]1CN(CCCCc2ccccc2)[C@H](CO)[C@@H](O)[C@@H]1O [Example 1, N-((3S,4R,5R,6R)-4,5-dihydroxy-6-(hydroxymethyl)-1-(4-phenylbutyl)piperidin-3-yl)acetamide]
